biological target: T1, USP25 (USP25-His6, Boston Biochem E-546) (Homo sapiens, UniProt Q9UHP3); test: Ubiquitin-Rhodamine 110 Assay for USP25 Activity, Example A-2; format: biochemical; settings: Ubiquitin-Rhodamine 110 assay, Example A-2; read-out: USP25 A-2 IC50 range
T1 construct: His6; purchased Boston Biochem E-546
T1 sequence (Q9UHP3 1-1055): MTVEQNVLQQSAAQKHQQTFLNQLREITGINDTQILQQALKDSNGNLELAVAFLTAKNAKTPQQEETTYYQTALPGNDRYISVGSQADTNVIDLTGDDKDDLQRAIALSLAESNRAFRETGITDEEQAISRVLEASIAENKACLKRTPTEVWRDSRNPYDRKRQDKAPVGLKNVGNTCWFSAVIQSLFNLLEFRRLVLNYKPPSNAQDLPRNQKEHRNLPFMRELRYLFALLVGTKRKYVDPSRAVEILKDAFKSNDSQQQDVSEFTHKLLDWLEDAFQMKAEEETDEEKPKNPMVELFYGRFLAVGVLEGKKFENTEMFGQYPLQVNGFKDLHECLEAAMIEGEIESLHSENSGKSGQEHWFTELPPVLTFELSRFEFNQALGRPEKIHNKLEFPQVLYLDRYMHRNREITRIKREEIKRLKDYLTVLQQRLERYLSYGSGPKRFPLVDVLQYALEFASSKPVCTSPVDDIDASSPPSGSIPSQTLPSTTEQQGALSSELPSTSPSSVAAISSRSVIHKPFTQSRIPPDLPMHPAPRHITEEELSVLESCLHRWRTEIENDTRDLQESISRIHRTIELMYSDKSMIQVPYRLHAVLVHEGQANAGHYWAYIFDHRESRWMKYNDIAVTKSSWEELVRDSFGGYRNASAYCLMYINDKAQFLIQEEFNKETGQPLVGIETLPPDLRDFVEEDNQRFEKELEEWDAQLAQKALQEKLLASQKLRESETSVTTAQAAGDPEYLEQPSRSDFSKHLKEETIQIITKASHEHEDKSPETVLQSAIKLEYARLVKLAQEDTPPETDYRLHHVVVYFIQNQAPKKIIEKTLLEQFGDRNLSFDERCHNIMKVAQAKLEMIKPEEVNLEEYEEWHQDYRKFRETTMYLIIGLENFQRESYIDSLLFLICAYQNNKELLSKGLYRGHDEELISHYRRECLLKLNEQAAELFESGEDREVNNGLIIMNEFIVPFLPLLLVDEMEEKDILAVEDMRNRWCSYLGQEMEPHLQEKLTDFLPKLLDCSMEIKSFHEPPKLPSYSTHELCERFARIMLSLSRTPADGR
Summary of the method: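 75 pM USP25-His6 was preincubated 30 min with compound (10-point 3-fold series, 25 μM–1.3 nM) in pH 8.0 Tris buffer with BME, BGG and Triton X-100. Then 25 nM Ub-Rh110 (<<Km) was added for 45 min at room temperature, stopped with citric acid, fluorescence read at 485/535 nm, IC50 by 4-parameter fit.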

Compound | IC50 [nM]
COC[C@@H]1CN(c2ccc3c(n2)CC[C@H](NC(=O)c2sc4nc(C)ccc4c2N)C3)C[C@H]1N [Example 328, 3-amino-N-[(6S)-2-[(3S,4R)-3-amino-4-(methoxymethyl)pyrrolidin-1-yl]-5,6,7,8-tetrahydroquinolin-6-yl]-6-methylthieno[2,3-b]pyridine-2-carboxamide] | > 2000
Cc1ccc2c(N)c(C(=O)N[C@H]3CCc4nc(N5C[C@H]6NCCC(F)(F)[C@H]6C5)ccc4C3)sc2n1 [Example 329, N-[(6S)-2-[(4aS,7aS)-4,4-difluoro-octahydro-1H-pyrrolo[3,4-b]pyridin-6-yl]-5,6,7,8-tetrahydroquinolin-6-yl]-3-amino-6-methylthieno[2,3-b]pyridine-2-carboxamide] | 200 to 2000
Cc1ccc2c(N)c(C(=O)N[C@H]3CCc4nc(N5C[C@@H]6NCCC(F)(F)[C@@H]6C5)ccc4C3)sc2n1 [Example 330, N-[(6S)-2-[(4aR,7aR)-4,4-difluoro-octahydro-1H-pyrrolo[3,4-b]pyridin-6-yl]-5,6,7,8-tetrahydroquinolin-6-yl]-3-amino-6-methylthieno[2,3-b]pyridine-2-carboxamide] | > 2000
CN[C@H]1CN(c2ccc3c(n2)CC[C@H](NC(=O)c2sc4nc(C)ccc4c2N)C3)C[C@@]1(C)O [Example 331, 3-amino-N-[(6S)-2-[(3R,4S)-3-hydroxy-3-methyl-4-(methylamino)pyrrolidin-1-yl]-5,6,7,8-tetrahydroquinolin-6-yl]-6-methylthieno[2,3-b]pyridine-2-carboxamide] | > 2000
CN[C@@H]1CN(c2ccc3c(n2)CC[C@H](NC(=O)c2sc4nc(C)ccc4c2N)C3)C[C@]1(C)O [Example 332, 3-amino-N-[(6S)-2-[(3S,4R)-3-hydroxy-3-methyl-4-(methylamino)pyrrolidin-1-yl]-5,6,7,8-tetrahydroquinolin-6-yl]-6-methylthieno[2,3-b]pyridine-2-carboxamide] | > 2000
CO[C@H]1CN(c2ccc3c(c2)OC[C@H](NC(=O)c2sc4nc(C)ccc4c2N)C3)[C@@H](C)[C@@H]1N [Example 333, 3-amino-N-[(3R)-7-[(2S,3S,4S)-3-amino-4-methoxy-2-methylpyrrolidin-1-yl]-3,4-dihydro-2H-1-benzopyran-3-yl]-6-methylthieno[2,3-b]pyridine-2-carboxamide] | 50 to 200
CO[C@H]1[C@H](N)CN(c2ccc3c(c2)OC[C@H](NC(=O)c2sc4nc(C)ccc4c2N)C3)[C@H]1C [Example 334, 3-amino-N-[(3R)-7-[(2S,3S,4R)-4-amino-3-methoxy-2-methylpyrrolidin-1-yl]-3,4-dihydro-2H-1-benzopyran-3-yl]-6-methylthieno[2,3-b]pyridine-2-carboxamide] | 1 to 50
CO[C@@H]1CN(c2ccc3c(c2)OC[C@H](NC(=O)c2sc4nc(C)ccc4c2N)C3)[C@H](C)[C@H]1N [Example 335, 3-amino-N-[(3R)-7-[(2R,3R,4R)-3-amino-4-methoxy-2-methylpyrrolidin-1-yl]-3,4-dihydro-2H-1-benzopyran-3-yl]-6-methylthieno[2,3-b]pyridine-2-carboxamide] | 200 to 2000
CO[C@H]1[C@@H](C)N(c2ccc3c(c2)OC[C@H](NC(=O)c2sc4nc(C)ccc4c2N)C3)C[C@@H]1N [Example 336, 3-amino-N-[(3R)-7-[(2R,3R,4S)-4-amino-3-methoxy-2-methylpyrrolidin-1-yl]-3,4-dihydro-2H-1-benzopyran-3-yl]-6-methylthieno[2,3-b]pyridine-2-carboxamide] | 200 to 2000
Cc1ccc2c(N)c(C(=O)N[C@H]3COc4cc(N5CC6(C5)OCC[C@H]6N)ccc4C3)sc2n1 [Example 337, 3-amino-N-[(3R)-7-[(8R)-8-amino-5-oxa-2-azaspiro[3.4]octan-2-yl]-3,4-dihydro-2H-1-benzopyran-3-yl]-6-methylthieno[2,3-b]pyridine-2-carboxamide] | 200 to 2000
Cc1ccc2c(N)c(C(=O)N[C@H]3COc4cc(N5CC6(C5)OCC[C@@H]6N)ccc4C3)sc2n1 [Example 338, 3-amino-N-[(3R)-7-[(8S)-8-amino-5-oxa-2-azaspiro[3.4]octan-2-yl]-3,4-dihydro-2H-1-benzopyran-3-yl]-6-methylthieno[2,3-b]pyridine-2-carboxamide] | 200 to 2000
Cc1ccc2c(N)c(C(=O)N[C@H]3COc4cc(N5C[C@@H](N)[C@@]6(CCO6)C5)ccc4C3)sc2n1 [Example 339, 3-amino-N-[(3R)-7-[(4R,8R)-8-amino-1-oxa-6-azaspiro[3.4]octan-6-yl]-3,4-dihydro-2H-1-benzopyran-3-yl]-6-methylthieno[2,3-b]pyridine-2-carboxamide] | 200 to 2000
Cc1ccc2c(N)c(C(=O)N[C@H]3COc4cc(N5C[C@H](N)[C@]6(CCO6)C5)ccc4C3)sc2n1 [Example 340, 3-amino-N-[(3R)-7-[(4S,8S)-8-amino-1-oxa-6-azaspiro[3.4]octan-6-yl]-3,4-dihydro-2H-1-benzopyran-3-yl]-6-methylthieno[2,3-b]pyridine-2-carboxamide] | 200 to 2000
COC[C@@]1(C)CN(c2ccc3c(n2)CC[C@H](NC(=O)c2sc4nc(C)ccc4c2N)C3)C[C@@H]1N [Example 341, 3-amino-N-[(6S)-2-[(3S,4R)-4-amino-3-(methoxymethyl)-3-methylpyrrolidin-1-yl]-5,6,7,8-tetrahydroquinolin-6-yl]-6-methylthieno[2,3-b]pyridine-2-carboxamide] | 200 to 2000
COC[C@]1(C)CN(c2ccc3c(n2)CC[C@H](NC(=O)c2sc4nc(C)ccc4c2N)C3)C[C@@H]1N [Example 342, 3-amino-N-[(6S)-2-[(3R,4R)-4-amino-3-(methoxymethyl)-3-methylpyrrolidin-1-yl]-5,6,7,8-tetrahydroquinolin-6-yl]-6-methylthieno[2,3-b]pyridine-2-carboxamide] | 200 to 2000
COC[C@]1(C)CN(c2ccc3c(n2)CC[C@H](NC(=O)c2sc4nc(C)ccc4c2N)C3)C[C@H]1N [Example 344, 3-amino-N-[(6S)-2-[(3R,4S)-4-amino-3-(methoxymethyl)-3-methylpyrrolidin-1-yl]-5,6,7,8-tetrahydroquinolin-6-yl]-6-methylthieno[2,3-b]pyridine-2-carboxamide] | 200 to 2000

Source: patent US11524966B1 (Valo Early Discovery, Inc., priority 2017, dated 2022)
